Assay results published in PubChem BioAssay (NCI).
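Five concentrations, 48 hours, 96-well plates. GI50 is the concentration that inhibits growth by half. TGI: total growth inhibition.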

Legend:
Assay in all cases: DTP human tumour cell line panel, 48 h
OVCAR-3 ovarian = tested on: OVCAR-3 ovarian
A498 renal = tested on: A498 renal
U251 CNS = tested on: U251 CNS
T-47D breast = tested on: T-47D breast
TK-10 renal = tested on: TK-10 renal
NCI-H23 lung = tested on: NCI-H23 lung
SF-268 CNS = tested on: SF-268 CNS
NCI-H460 lung = tested on: NCI-H460 lung
MALME-3M melanoma = tested on: MALME-3M melanoma
RXF 393 renal = tested on: RXF 393 renal
COLO 205 colon = tested on: COLO 205 colon
HL-60(TB) leukemia = tested on: HL-60(TB) leukemia
SN12C renal = tested on: SN12C renal
UACC-62 melanoma = tested on: UACC-62 melanoma
SF-295 CNS = tested on: SF-295 CNS
NCI-H226 lung = tested on: NCI-H226 lung
CCRF-CEM leukemia = tested on: CCRF-CEM leukemia
OVCAR-8 ovarian = tested on: OVCAR-8 ovarian
BT-549 breast = tested on: BT-549 breast
RPMI-8226 leukemia = tested on: RPMI-8226 leukemia
M14 melanoma = tested on: M14 melanoma
SNB-75 CNS = tested on: SNB-75 CNS
786-0 renal = tested on: 786-0 renal
HCT-116 colon = tested on: HCT-116 colon
SNB-19 CNS = tested on: SNB-19 CNS
NCI-H522 lung = tested on: NCI-H522 lung
OVCAR-4 ovarian = tested on: OVCAR-4 ovarian
CAKI-1 renal = tested on: CAKI-1 renal
MOLT-4 leukemia = tested on: MOLT-4 leukemia

`Cc1cc(C2(c3cc(C)c(OCC(O)CNc4c(C)n(C)n(-c5ccccc5)c4=O)cc3C(C)C)OC(=O)c3ccccc32)c(C(C)C)cc1OCC(O)CNc1c(C)n(C)n(-c2ccccc2)c1=O` (stereo not drawn) was tested, and the GI50 (OVCAR-3 ovarian) was 19 µM, the TGI (OVCAR-3 ovarian) was 92.6 µM and the GI50 (A498 renal) was 29.1 µM. The TGI (A498 renal) was greater than 100 µM, the GI50 (U251 CNS) was 25.9 µM and the TGI (U251 CNS) was 99.6 µM. For the same compound, the GI50 (T-47D breast) was 18.5 µM, the TGI (T-47D breast) was greater than 100 µM and the GI50 (TK-10 renal) was 49.3 µM. It also gave a TGI (TK-10 renal) greater than 100 µM, a GI50 (NCI-H23 lung) of 23.5 µM and a TGI (NCI-H23 lung) greater than 100 µM. For the same compound, the GI50 (SF-268 CNS) was 18.1 µM, the TGI (SF-268 CNS) was greater than 100 µM and the GI50 (NCI-H460 lung) was 15.6 µM. For the same compound, the TGI (NCI-H460 lung) was 43.4 µM, the GI50 (MALME-3M melanoma) was 20 µM and the TGI (MALME-3M melanoma) was 52.9 µM. It also gave a GI50 (RXF 393 renal) of 5.2 µM, a TGI (RXF 393 renal) of 38 µM and a GI50 (COLO 205 colon) of 17.9 µM. For the same compound, the TGI (COLO 205 colon) was 41.8 µM, the GI50 (HL-60(TB) leukemia) was 14.2 µM and the TGI (HL-60(TB) leukemia) was 79.7 µM. It also gave a GI50 (SN12C renal) of 26.1 µM, a TGI (SN12C renal) greater than 100 µM and a GI50 (UACC-62 melanoma) of 9.74 µM. For the same compound, the TGI (UACC-62 melanoma) was 24.4 µM, the GI50 (SF-295 CNS) was 11.1 µM and the TGI (SF-295 CNS) was 32 µM. It also gave a GI50 (NCI-H226 lung) of 15.7 µM, a TGI (NCI-H226 lung) greater than 100 µM and a GI50 (CCRF-CEM leukemia) of 15.5 µM. It also gave a TGI (CCRF-CEM leukemia) greater than 100 µM, a GI50 (OVCAR-8 ovarian) of 27 µM and a TGI (OVCAR-8 ovarian) greater than 100 µM. The GI50 (BT-549 breast) was 23.3 µM, the TGI (BT-549 breast) was greater than 100 µM and the GI50 (RPMI-8226 leukemia) was 13.9 µM. For the same compound, the TGI (RPMI-8226 leukemia) was 84.6 µM, the GI50 (M14 melanoma) was 17.8 µM and the TGI (M14 melanoma) was 44.7 µM. For the same compound, the GI50 (SNB-75 CNS) was 20.3 µM, the TGI (SNB-75 CNS) was greater than 100 µM and the GI50 (786-0 renal) was 19.2 µM. For the same compound, the TGI (786-0 renal) was 76.5 µM, the GI50 (HCT-116 colon) was 16.9 µM and the TGI (HCT-116 colon) was 46.8 µM. The GI50 (SNB-19 CNS) was 23.5 µM, the TGI (SNB-19 CNS) was greater than 100 µM and the GI50 (NCI-H522 lung) was 26.9 µM. It also gave a TGI (NCI-H522 lung) of 94.1 µM, a GI50 (OVCAR-4 ovarian) of 27.2 µM and a TGI (OVCAR-4 ovarian) greater than 100 µM. For the same compound, the GI50 (CAKI-1 renal) was 4.11 µM, the TGI (CAKI-1 renal) was greater than 100 µM and the GI50 (MOLT-4 leukemia) was 6.78 µM. For the same compound, the TGI (MOLT-4 leukemia) was greater than 100 µM.
